Data on 68 compounds can be found in patent US8735431B2, “Active compound combinations having insecticidal properties” (priority 2003, dated 2014).

In data set [1] the test system is Heliothis armigera. In words: Heliothis armigera test (soybean shoots dipped). The data set is classed as in vivo. As to the method: (§1) To produce a suitable preparation of active compound, 1 part by weight of active compound is mixed with the stated amounts of solvent and emulsifier, and the concentrate is diluted with emulsifier-containing water to the desired concentration.
Soybean shoots (Glycine max) are treated by being dipped into the preparation of active compound of the desired concentration and are populated with caterpillars of the cotton bollworm (Heliothis armigera) while the leaves are still moist.
(§2) After the desired period of time, the kill in % is determined. 100% means that all caterpillars have been killed; 0% means that none of the caterpillars have been killed. The determined kill ratios are entered into Colby's formula (see page 39).

Data set [2] deals with Plutella xylostella, normally sensitive strain. In words: Plutella xylostella test (normally sensitive strain). The data set is classed as in vivo. The following applies: 20 ppm, 4 d. As to the method:
as §1
Cabbage leaves (Brassica oleracea) are treated by being dipped into the preparation of active compound of the desired concentration and are populated with caterpillars of the diamondback moth (Plutella xylostella, normally sensitive strain) while the leaves are still moist.
as §2

Turning to `COc1cccc(C(=O)NN(C(=O)c2cc(C)cc(C)c2)C(C)(C)C)c1C` [(2-10) methoxyfenozide, methoxyfenozide, reference compound], in data set [1] (4 ppm, 3 d), the “Kill rate in % after 3d found” value is 0%.

One may read the melting point as the temperature of the solid-liquid transition. Turning to `Cc1cc(Cl)cc(C(=O)NC(C)C)c1NC(=O)c1cc(OCC(F)(F)F)nn1-c1ncccc1Cl`, the melting point is 217 to 218 °C.

With `Cc1cc(I)cc(C(=O)NC(C)(C)C)c1NC(=O)c1cc(Cl)nn1-c1ncccc1Cl`, the melting point lay in the range of 228 to 229 °C.

Compound `Cc1cc(Br)cc(C(=O)NC(C)(C)C)c1NC(=O)c1cc(Cl)nn1-c1ncccc1Cl` showed a melting point of 224 to 225 °C.

In turn, `CC(C)NC(=O)c1cc(Br)cc(Br)c1NC(=O)c1cc(C(F)(F)F)nn1-c1ncccc1Cl` gave a melting point of 192 to 193 °C.

Regarding `Cc1cc(I)cc(C(=O)NC(C)C)c1NC(=O)c1cc(C(F)(F)F)nn1-c1ncccc1Cl`, the melting point fell in the range of 188 to 189 °C.

As for `CCNC(=O)c1cc(Br)cc(Br)c1NC(=O)c1cc(Br)nn1-c1ncccc1Cl`, the melting point lay in the range of 196 to 197 °C.

For the compound `CNC(=O)c1cc(Br)cc(C)c1NC(=O)c1cc(Br)nn1-c1ncccc1Cl`, the melting point was 147 to 149 °C.

Turning to `CCNC(=O)c1cc(Cl)cc(Cl)c1NC(=O)c1cc(Cl)nn1-c1ncccc1Cl`, the melting point was 206 to 208 °C.

As to `CNC(=O)c1cc(Br)cc(C)c1NC(=O)c1cc(Cl)nn1-c1ncccc1Cl`, the melting point lay in the range of 140 to 141 °C.

`Cc1cc(Br)cc(C(=O)NC(C)C)c1NC(=O)c1cc(Br)nn1-c1ncccc1Cl` displayed a melting point of 185 to 187 °C.

In turn, `CC(C)(C)NC(=O)c1cc(Br)cc(Br)c1NC(=O)c1cc(C(F)(F)F)nn1-c1ncccc1Cl` registered a melting point of 246 to 247 °C.

`Cc1cc(I)cc(C(=O)NC(C)C)c1NC(=O)c1cc(Cl)nn1-c1ncccc1Cl` came in with a melting point of 189 to 190 °C.

`CCNC(=O)c1cc(Br)cc(C)c1NC(=O)c1cc(Cl)nn1-c1ncccc1Cl` gave a melting point of 192 to 194 °C.

The compound `CCNC(=O)c1cc(I)cc(C)c1NC(=O)c1cc(C(F)(F)F)nn1-c1ncccc1Cl` registered a melting point of 199 to 200 °C.

`CNC(=O)c1cc(Br)cc(Br)c1NC(=O)c1cc(Cl)nn1-c1ncccc1Cl` returned a melting point of 188 to 190 °C.

For the compound `O=C(NC(=O)c1ccccc1Cl)Nc1ccc(OC(F)(F)F)cc1` [(2-5) triflumuron, triflumuron, reference compound], the “Kill rate in % after 6d found” value in data set [1] (0.8 ppm, 6 d) was determined as 0%. Also, the “Kill rate in % after 4d found” value in data set [2] came to 60%.

The compound `CC(C)NC(=O)c1cc(Cl)cc(Cl)c1NC(=O)c1cc(OCC(F)(F)F)nn1-c1ncccc1Cl` registered a melting point of 232 to 235 °C.

Take `CNC(=O)c1cc(Cl)cc(Cl)c1NC(=O)c1cc(Br)nn1-c1ncccc1Cl`: the melting point fell in the range of 245 to 246 °C.

For the compound `CNC(=O)c1cc(Cl)cc(C)c1NC(=O)c1cc(OCC(F)(F)F)nn1-c1ncccc1Cl`, the melting point was 207 to 208 °C.

For the compound `Cc1cc(Br)cc(C(=O)N(C)C)c1NC(=O)c1cc(C(F)(F)F)nn1-c1ncccc1Cl`, the melting point was 207 to 208 °C.

`CCNC(=O)c1cc(Br)cc(Br)c1NC(=O)c1cc(C(F)(F)F)nn1-c1ncccc1Cl` showed a melting point of 188 to 189 °C.

In turn, `CC(C)(C)NC(=O)c1cc(Br)cc(Br)c1NC(=O)c1cc(Br)nn1-c1ncccc1Cl` displayed a melting point of 194 to 196 °C.

The compound `CNC(=O)c1cc(I)cc(C)c1NC(=O)c1cc(Br)nn1-c1ncccc1Cl` had a melting point of 229 to 230 °C.

With `CNC(=O)c1cc(Cl)cc(Cl)c1NC(=O)c1cc(C(F)(F)F)nn1-c1ncccc1Cl`, the melting point lay in the range of 155 to 157 °C.

In the case of `Cc1cc(I)cc(C(=O)NC(C)C)c1NC(=O)c1cc(Br)nn1-c1ncccc1Cl`, the melting point was 191 to 192 °C.

Turning to `CN(C)C(=O)c1cc(Cl)cc(Cl)c1NC(=O)c1cc(Cl)nn1-c1ncccc1Cl`, the melting point was 231 to 232 °C.

The compound `CCNC(=O)c1cc(Cl)cc(C)c1NC(=O)c1cc(Cl)nn1-c1ncccc1Cl` came in with a melting point of 199 to 200 °C.

On to `CC(C)NC(=O)c1cc(Cl)cc(Cl)c1NC(=O)c1cc(Cl)nn1-c1ncccc1Cl`, for which the melting point lay within 197 to 199 °C.

`Cc1cc(Br)cc(C(=O)NC(C)C)c1NC(=O)c1cc(C(F)(F)F)nn1-c1ncccc1Cl` displayed a melting point of 197 to 198 °C.

`CC(C)(C)NC(=O)c1cc(Cl)cc(Cl)c1NC(=O)c1cc(Cl)nn1-c1ncccc1Cl` had a melting point of 172 to 173 °C.

`CC(C)(C)NC(=O)c1cc(Cl)cc(Cl)c1NC(=O)c1cc(Br)nn1-c1ncccc1Cl` gave a melting point of 179 to 180 °C.

Consider `CN(C)C(=O)c1cc(Br)cc(Br)c1NC(=O)c1cc(Br)nn1-c1ncccc1Cl`, for which the melting point fell in the range of 189 to 190 °C.

`CNC(=O)c1cc(Cl)cc(Cl)c1NC(=O)c1cc(Cl)nn1-c1ncccc1Cl`: the melting point was in the range of 205 to 206 °C.

`Cc1cc(Cl)cc(C(=O)NC(C)(C)C)c1NC(=O)c1cc(Br)nn1-c1ncccc1Cl` yielded a melting point of 159 to 161 °C.

For `CN(C)C(=O)c1cc(Cl)cc(Cl)c1NC(=O)c1cc(Br)nn1-c1ncccc1Cl`, the melting point was in the range of 216 to 218 °C.

Regarding `CC(C)NC(=O)c1cc(Cl)cc(Cl)c1NC(=O)c1cc(C(F)(F)F)nn1-c1ncccc1Cl`, the melting point is 200 to 201 °C.

Compound `CCNC(=O)c1cc(Cl)cc(C)c1NC(=O)c1cc(OCC(F)(F)F)nn1-c1ncccc1Cl` showed a melting point of 205 to 207 °C.

`Cc1cc(Cl)cc(C(=O)NC(C)(C)C)c1NC(=O)c1cc(Cl)nn1-c1ncccc1Cl` had a melting point of 163 to 165 °C.

As for `Cc1cc(Br)cc(C(=O)NC(C)(C)C)c1NC(=O)c1cc(C(F)(F)F)nn1-c1ncccc1Cl`, the melting point was 247 to 248 °C.

In turn, `CNC(=O)c1cc(Cl)cc(Cl)c1NC(=O)c1cc(OCC(F)(F)F)nn1-c1ncccc1Cl` displayed a melting point of 192 to 195 °C.

`CC(C)(C)NC(=O)c1cc(Br)cc(Cl)c1NC(=O)c1cc(C(F)(F)F)nn1-c1ncccc1Cl` returned a melting point of 143 to 145 °C.

With `Cc1cc(Br)cc(C(=O)NC(C)C)c1NC(=O)c1cc(Cl)nn1-c1ncccc1Cl`, the melting point was 152 to 153 °C.

The compound `CNC(=O)c1cc(I)cc(C)c1NC(=O)c1cc(Cl)nn1-c1ncccc1Cl` displayed a melting point of 233 to 234 °C.

`CCNC(=O)c1cc(Cl)cc(Cl)c1NC(=O)c1cc(Br)nn1-c1ncccc1Cl` had a melting point of 214 to 215 °C.

Regarding `CNC(=O)c1cc(Cl)cc(C)c1NC(=O)c1cc(Cl)nn1-c1ncccc1Cl`, the melting point was 225 to 226 °C.

With `Cc1cc(Cl)cc(C(=O)NC(C)(C)C)c1NC(=O)c1cc(C(F)(F)F)nn1-c1ncccc1Cl`, the melting point lay within 223 to 225 °C.

`CC(C)NC(=O)c1cc(Br)cc(Br)c1NC(=O)c1cc(Br)nn1-c1ncccc1Cl` came in with a melting point of 162 to 163 °C.

As for `CCNC(=O)c1cc(Cl)cc(C)c1NC(=O)c1cc(C(F)(F)F)nn1-c1ncccc1Cl`, the melting point is 163 to 164 °C.

As to `CCNC(=O)c1cc(Br)cc(Br)c1NC(=O)c1cc(Cl)nn1-c1ncccc1Cl`, the melting point was in the range of 192 to 194 °C.

`Cc1cc(I)cc(C(=O)NC(C)(C)C)c1NC(=O)c1cc(C(F)(F)F)nn1-c1ncccc1Cl` gave a melting point of 242 to 243 °C.

For `CN(C)C(=O)c1cc(Cl)cc(Cl)c1NC(=O)c1cc(C(F)(F)F)nn1-c1ncccc1Cl`, the melting point was 225 to 227 °C.

With `CN(C)C(=O)c1cc(Br)cc(Br)c1NC(=O)c1cc(C(F)(F)F)nn1-c1ncccc1Cl`, the melting point lay in the range of 228 to 229 °C.

`CN(C)C(=O)c1cc(Br)cc(Br)c1NC(=O)c1cc(Cl)nn1-c1ncccc1Cl` came in with a melting point of 153 to 155 °C.

In turn, `Cc1cc(Br)cc(C(=O)NC(C)(C)C)c1NC(=O)c1cc(Br)nn1-c1ncccc1Cl` showed a melting point of 215 to 221 °C.

In the case of `CCNC(=O)c1cc(I)cc(C)c1NC(=O)c1cc(Cl)nn1-c1ncccc1Cl`, the melting point was 196 to 197 °C.

In turn, `CCNC(=O)c1cc(Cl)cc(Cl)c1NC(=O)c1cc(C(F)(F)F)nn1-c1ncccc1Cl` gave a melting point of 201 to 202 °C.

Take `CC(C)(C)NC(=O)c1cc(Br)cc(Br)c1NC(=O)c1cc(Cl)nn1-c1ncccc1Cl`: the melting point was 210 to 212 °C.

As to `CNC(=O)c1cc(Br)cc(C)c1NC(=O)c1cc(C(F)(F)F)nn1-c1ncccc1Cl`, the melting point was 222 to 223 °C.

`CCNC(=O)c1cc(Br)cc(C)c1NC(=O)c1cc(C(F)(F)F)nn1-c1ncccc1Cl`: the melting point is 192 to 193 °C.

As for `CNC(=O)c1cc(Br)cc(Br)c1NC(=O)c1cc(Br)nn1-c1ncccc1Cl`, the melting point is 166 to 168 °C.

As for `CNC(=O)c1cc(I)cc(C)c1NC(=O)c1cc(C(F)(F)F)nn1-c1ncccc1Cl`, the melting point was in the range of 199 to 200 °C.

Turning to `CCNC(=O)c1cc(Cl)cc(C)c1NC(=O)c1cc(Br)nn1-c1ncccc1Cl`, the melting point fell in the range of 194 to 195 °C.

In the case of `CCNC(=O)c1cc(Br)cc(C)c1NC(=O)c1cc(Br)nn1-c1ncccc1Cl`, the melting point fell in the range of 194 to 196 °C.

As to `CNC(=O)c1cc(Br)cc(Br)c1NC(=O)c1cc(C(F)(F)F)nn1-c1ncccc1Cl`, the melting point fell in the range of 162 to 163 °C.

As for `CC(C)NC(=O)c1cc(Br)cc(Br)c1NC(=O)c1cc(Cl)nn1-c1ncccc1Cl`, the melting point was in the range of 197 to 199 °C.

For `CC(C)NC(=O)c1cc(Cl)cc(Cl)c1NC(=O)c1cc(Br)nn1-c1ncccc1Cl`, the melting point was in the range of 188 to 190 °C.

With `CC(C)(C)NC(=O)c1cc(Cl)cc(Cl)c1NC(=O)c1cc(C(F)(F)F)nn1-c1ncccc1Cl`, the melting point lay in the range of 170 to 172 °C.
